The values that follow are results of earlier work, collected in US7449585B2, “Indazol-3-ones and analogues and derivatives thereof which modulate the function of the vanilloid-1 receptor (VR1)” (Merck Sharp & Dohme Ltd., priority 2003, dated 2008).

The series addresses VR1 (Rattus norvegicus, UniProt O35433). The conditions noted are these: literature (Wahl et al., Mol. Pharmacol, 59:9, 2001).

Sequence of VR1 (O35433 whole entry): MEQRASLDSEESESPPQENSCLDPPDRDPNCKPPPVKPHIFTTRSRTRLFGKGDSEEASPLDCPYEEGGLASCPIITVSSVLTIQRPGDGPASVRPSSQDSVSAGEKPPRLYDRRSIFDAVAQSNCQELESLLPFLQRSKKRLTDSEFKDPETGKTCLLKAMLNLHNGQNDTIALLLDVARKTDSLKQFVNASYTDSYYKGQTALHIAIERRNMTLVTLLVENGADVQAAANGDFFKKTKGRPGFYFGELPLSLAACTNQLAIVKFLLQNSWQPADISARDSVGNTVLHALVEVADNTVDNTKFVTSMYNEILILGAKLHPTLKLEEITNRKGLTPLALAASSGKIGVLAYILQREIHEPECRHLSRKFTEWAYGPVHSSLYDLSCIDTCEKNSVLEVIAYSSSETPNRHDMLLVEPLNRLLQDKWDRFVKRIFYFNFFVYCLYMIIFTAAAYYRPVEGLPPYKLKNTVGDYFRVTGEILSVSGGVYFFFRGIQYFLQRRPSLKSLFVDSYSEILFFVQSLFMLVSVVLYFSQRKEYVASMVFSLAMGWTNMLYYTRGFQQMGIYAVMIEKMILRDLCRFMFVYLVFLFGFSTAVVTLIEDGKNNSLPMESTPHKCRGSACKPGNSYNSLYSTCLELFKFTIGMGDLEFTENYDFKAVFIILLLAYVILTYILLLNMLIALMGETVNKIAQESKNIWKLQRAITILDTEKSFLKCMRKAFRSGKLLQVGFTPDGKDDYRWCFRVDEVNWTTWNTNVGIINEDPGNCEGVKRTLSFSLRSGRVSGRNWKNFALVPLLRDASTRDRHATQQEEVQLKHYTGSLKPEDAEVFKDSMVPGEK

As for `C=C(C)[C@]12C[C@@H](C)[C@@]34O[C@](Cc5ccccc5)(O[C@@H]1[C@@H]3C=C(COC(=O)Cc1cc(I)c(O)c(OC)c1)C[C@]1(O)C(=O)C(C)=C[C@@H]41)O2` [Iodo-resiniferatoxin], the “VR1 antagonist potency (in words)” value was “nanomolar antagonist”.
